The target in one test is T1, FLT3 kinase (Homo sapiens, UniProt P36888).
T1 construct: purchased SignalChem
T1 sequence (P36888 27-993): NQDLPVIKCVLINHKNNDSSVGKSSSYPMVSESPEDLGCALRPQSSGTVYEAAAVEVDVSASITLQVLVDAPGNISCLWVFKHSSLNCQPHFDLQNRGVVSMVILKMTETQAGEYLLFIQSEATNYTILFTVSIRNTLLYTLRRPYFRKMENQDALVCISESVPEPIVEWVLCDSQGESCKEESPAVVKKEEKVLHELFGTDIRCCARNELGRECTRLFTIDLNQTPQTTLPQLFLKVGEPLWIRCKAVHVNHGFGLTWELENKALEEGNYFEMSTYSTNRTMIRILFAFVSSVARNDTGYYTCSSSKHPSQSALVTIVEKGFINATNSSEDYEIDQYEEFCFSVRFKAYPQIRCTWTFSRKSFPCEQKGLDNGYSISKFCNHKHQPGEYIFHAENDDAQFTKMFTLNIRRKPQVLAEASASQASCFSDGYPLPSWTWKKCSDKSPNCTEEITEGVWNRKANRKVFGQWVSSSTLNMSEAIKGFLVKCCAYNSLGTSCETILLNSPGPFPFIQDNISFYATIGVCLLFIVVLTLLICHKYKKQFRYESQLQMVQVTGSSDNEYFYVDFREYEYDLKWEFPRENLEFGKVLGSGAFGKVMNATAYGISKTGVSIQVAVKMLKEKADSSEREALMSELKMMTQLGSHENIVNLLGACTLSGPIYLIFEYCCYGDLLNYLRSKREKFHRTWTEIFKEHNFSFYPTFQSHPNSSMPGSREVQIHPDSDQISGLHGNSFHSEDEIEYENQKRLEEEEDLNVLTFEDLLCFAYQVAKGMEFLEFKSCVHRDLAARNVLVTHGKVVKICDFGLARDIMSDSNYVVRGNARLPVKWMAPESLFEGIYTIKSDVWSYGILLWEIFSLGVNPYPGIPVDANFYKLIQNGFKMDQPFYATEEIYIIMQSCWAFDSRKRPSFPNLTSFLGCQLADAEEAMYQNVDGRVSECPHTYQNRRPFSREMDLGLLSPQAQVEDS
Nature of the test: FLT3 kinase assay (AlphaScreen). Format: biochemical. The conditions noted are these: read-out: Ranking of IC50 values, FLT3. An outline of the steps:
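AlphaScreen detection of biotin-poly(Glu4:Tyr1) phosphorylation by 1.5 ng recombinant FLT3 (10 μM ATP, pH 7.0 MOPS, 10 mM MgCl2; 30 °C, 30 min, EDTA quench). IC50 values derived from serially diluted compound tested in duplicate.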
(Bead proximity is the source of the signal in Alpha formats.)

For a further test, the target named is T2, PDGFRα kinase (Homo sapiens, UniProt P16234).
T2 construct: purchased SignalChem
Put plainly: PDGFRα kinase assay (AlphaScreen). Format: biochemical. The following applies: read-out: Ranking of IC50 values, PDGFRα. As to the method: Inhibition of PDGFRα kinase activity by a test compound disclosed herein was estimated by AlphaScreen (PerkinElmer). Standard assay conditions were 1.5 ng of recombinant PDGFRα kinase (SignalChem) with 6 ng Biotin-conjugated Poly-(Glu 4: Tyr 1) (Cisbio) in the assay buffer (10 μM ATP, 10 mM MOPs, pH 7.0, 0.21 mM EDTA, 0.5% glycerol, 1 mg/mL BSA, 0.01% 2-mercaptoethanol, 0.001% Brij35, 10 mM MgCl2) in a final volume of 25 μL. Reactions were incubated at 30° C. for 30 min and stopped by adding […] of 50 mM EDTA. Analysis of resulting product using an AlphaScreen kit and counted with Enspire Alpha (PerkinElmer). […] The IC50 values of inhibitors were determined after carrying out assays with each compound at serially diluted concentrations in duplication. The results were analyzed using linear regression software (GraphPad Prism 5; GraphPad Software Inc.)

The subject of test [1] is THP-1 human acute monocytic leukemia cell with NRAS G12D mutation. Put plainly: THP-1 cell proliferation assay (counter screen). Format: cell-based. The following applies: Homo sapiens, THP-1 cells, 72 hours treatment, CellTiter96, read-out: anti-proliferation activity THP-1 NRAS N12D, IC50 ranking. As for the experimental part:
(§1) Inhibitions of cell growths by compounds were measured using CellTiter™-96 assay. The cytotoxicities of compounds of the invention were evaluated in cell line panels with different signaling pathway dependencies, including MV4-11 human acute myeloid leukemia cell with FLT3-ITD mutation, Molm-14 human acute myeloid leukemia cell with FLT3-ITD mutation, THP-1 human acute monocytic leukemia cell with NRAS G12D mutation, A375 melanoma cell with BRAF V600E mutation, and HCC827 NSCLC cell with EGFR exon 19 deletion mutation.
THP-1 cells are human acute monocytic leukemia cells with NRAS G12D mutation, which renders the cell growth independent of class III RTKs signaling. THP-1 cells (catalog #TIB-202) were obtained from the ATCC. Briefly, cells were grown in RPMI 1640 medium supplemented with 10% heat inactivated fetal bovine serum and 0.05 mM 2-mercaptoethanol and incubated at 37° C. in 5% CO2 atmosphere. Cells were allowed to expand until reaching saturation, at which point they were sub-cultured or harvested for assay use.
(§2) MV4-11, Molm-14, THP-1, A375, and HCC827 cells were seeded into 96-well plates at 6500, 25000, 5000, 2000 and 8000 cells/well, respectively, and incubated at 37° C., 5% CO2 overnight. Then, these seeded cells were treated with increasing concentrations of the test compounds and incubated for another 72 hours. At the end of the incubation, CellTiter96® AQueous One Solution Reagent (Promega, […]) was added and incubated for the additional 2˜4 hours. Cell viability was determined by measuring absorbance at 490 nm using EMax® microplate reader (Molecular Devices, San Jose, CA, USA).
(In general: The purpose of a counterscreen is to sort out artefacts and off-target activity.)

For test [2], the system named is A375 melanoma cell with BRAF V600E mutation. Put plainly: A375 cell proliferation assay (counter screen). Format: cell-based, human. The conditions noted are these: Homo sapiens, A-375, A375 cells, 72 hours treatment, CellTiter96, read-out: anti-proliferation activity A375 BRAF V600E, IC50 ranking. As to the method:
as §1
A375 cells are melanoma cells encoding BRFA V600E mutation, which renders the cell growth dependent on BRAF signaling instead of class III RTKs signaling. A375 cells (catalog #CRL-1619) were obtained from the ATCC. Briefly, cells were cultured in DMEM containing 10% FBS and incubated at 37° C. in 5% CO2 atmosphere. Cells were allowed to expand until reaching saturation, at which point they were sub-cultured or harvested for assay use.
as §2

SMILES strings stand for the structures. pIC50: −log10 of the molar value.

T2 sequence (P16234 24-1089): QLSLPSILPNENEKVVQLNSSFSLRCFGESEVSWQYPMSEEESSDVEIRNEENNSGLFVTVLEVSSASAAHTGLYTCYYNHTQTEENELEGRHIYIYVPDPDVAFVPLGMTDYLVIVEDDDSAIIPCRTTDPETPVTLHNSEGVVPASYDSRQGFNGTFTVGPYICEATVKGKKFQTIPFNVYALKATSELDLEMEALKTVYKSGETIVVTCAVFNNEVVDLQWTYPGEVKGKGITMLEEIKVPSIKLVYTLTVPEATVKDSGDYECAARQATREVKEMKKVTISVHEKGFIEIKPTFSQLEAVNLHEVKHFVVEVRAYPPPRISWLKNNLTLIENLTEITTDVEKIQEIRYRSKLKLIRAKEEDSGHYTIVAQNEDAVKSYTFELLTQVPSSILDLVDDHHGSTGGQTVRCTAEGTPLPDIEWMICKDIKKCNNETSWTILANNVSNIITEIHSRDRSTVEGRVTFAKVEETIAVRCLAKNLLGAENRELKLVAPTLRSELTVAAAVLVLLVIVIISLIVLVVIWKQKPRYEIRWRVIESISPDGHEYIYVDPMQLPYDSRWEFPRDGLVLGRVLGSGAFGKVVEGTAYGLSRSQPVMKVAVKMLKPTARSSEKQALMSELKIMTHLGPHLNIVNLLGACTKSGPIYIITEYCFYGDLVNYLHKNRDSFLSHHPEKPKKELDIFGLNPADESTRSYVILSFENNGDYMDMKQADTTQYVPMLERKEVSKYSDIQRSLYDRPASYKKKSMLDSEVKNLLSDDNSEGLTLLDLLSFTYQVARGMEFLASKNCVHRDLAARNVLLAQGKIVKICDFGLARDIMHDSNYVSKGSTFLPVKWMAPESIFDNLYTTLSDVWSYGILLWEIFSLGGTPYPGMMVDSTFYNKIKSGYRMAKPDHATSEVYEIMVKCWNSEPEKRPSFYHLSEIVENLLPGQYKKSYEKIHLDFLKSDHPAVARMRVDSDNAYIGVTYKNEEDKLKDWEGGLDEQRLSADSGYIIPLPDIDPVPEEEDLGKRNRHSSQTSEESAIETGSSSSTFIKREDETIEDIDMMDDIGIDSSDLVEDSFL

Turning to `C[C@@H]1CN(Cc2ccc(-c3cc4c(s3)Cc3c(-c5ccc6cn[nH]c6c5)n[nH]c3-4)cn2)C[C@H](C)O1` [Compound 16, (2R,6S)-4-((5-(3-(1H-indazol-6-yl)-1,4-dihydro-thieno[2′,3′:4,5]cyclopenta [1,2-c]pyrazol-6-yl)pyridin-2-yl)methyl)-2,6-dimethylmorpholine], the pIC50 is more than 9.00 at FLT3 kinase, 8.00 to 9.00 on PDGFRα kinase, less than 5.00 in test [1] and less than 5.00 in test [2].

Consider `Cc1cc(-c2cc3c(s2)Cc2c(-c4ccc5cnn(C)c5c4)n[nH]c2-3)ccn1` [Compound 17, 3-(1-methyl-1H-indazol-6-yl)-6-(2-methylpyridin-4-yl)-1,4-dihydrothieno [2′,3′:4,5]cyclopenta[1,2-c] pyrazole], for which the pIC50 was 8.00 to 9.00 on FLT3 kinase, 7.52 to 8.00 on PDGFRα kinase, less than 5.00 in test [1] and less than 5.00 in test [2].

Consider `c1cc(CN2CCOCC2)ncc1-c1cc2c(s1)Cc1c(-c3ccc4cn[nH]c4c3)n[nH]c1-2` [Compound 18, 4-((5-(3-(1H-indazol-6-yl)-1,4-dihydrothieno[2′,3′:4,5]cyclopenta[1,2-c]pyrazol-6-yl)pyridin-2-yl)methyl) morpholine], for which the pIC50 at FLT3 kinase is more than 9.00; at PDGFRα kinase, 8.00 to 9.00; in test [1], less than 5.00; in test [2], less than 5.00.

For `C[C@@H]1CN(C(=O)c2ccc(-c3cc4c(s3)Cc3c(-c5ccc6cnn(C)c6c5)n[nH]c3-4)cc2)C[C@H](C)O1` [Compound 19, ((2S,6R)-2,6-dimethyl-morpholino)(4-(3-(1-methyl-1H-indazol-6-yl)-1,4-dihydrothieno[2′,3′:4,5]cyclopenta[1,2-c]pyrazol-6-yl)phenyl)methanone], the pIC50 on FLT3 kinase is 8.00 to 9.00; on PDGFRα kinase it was 8.00 to 9.00; in test [1], less than 5.00; in test [2], less than 5.00.

`CC(c1ccc(-c2cc3c(s2)Cc2c(-c4ccc5cnn(C)c5c4)n[nH]c2-3)cc1)N1CCOCC1` (stereo not shown) [Compound 20, 4-(1-(4-(3-(1-methyl-1H-indazol-6-yl)-1,4-dihydro-thieno[2′,3′:4,5]cyclopenta [1,2-c]pyrazol-6-yl)phenyl)ethyl)morpholine]: the pIC50 at FLT3 kinase is 8.00 to 9.00; on PDGFRα kinase it was 8.00 to 9.00; in test [1], less than 5.00; in test [2] it was less than 5.00.

Consider `Cn1ncc2ccc(-c3n[nH]c4c3Cc3sc(-c5ccc(C(=O)N6CCOCC6)cc5)cc3-4)cc21` [Compound 21, (4-(3-(1-methyl-1H-indazol-6-yl)-1,4-dihydro-thieno[2′,3′:4,5]cyclopenta [1,2-c]pyrazol-6-yl)phenyl) (morpholino)methanone], for which the pIC50 at FLT3 kinase is more than 9.00; at PDGFRα kinase, 8.00 to 9.00; in test [1], less than 5.00; in test [2] it was less than 5.00.

Regarding `Cn1ncc2ccc(-c3n[nH]c4c3Cc3sc(-c5ccc(CCN6CCOCC6)cc5)cc3-4)cc21` [Compound 22, 4-(4-(3-(1-methyl-1H-indazol-6-yl)-1,4-dihydro-thieno[2′,3′:4,5]cyclopenta [1,2-c]pyrazol-6-yl)phenethyl)morpholine], the pIC50 at FLT3 kinase is more than 9.00; on PDGFRα kinase, 7.52 to 8.00; in test [1], less than 5.00; in test [2], less than 5.00.

As to `Cn1ncc2ccc(-c3n[nH]c4c3Cc3sc(-c5ccc(C(=O)N6CCOCC6)nc5)cc3-4)cc21` [Compound 23, (5-(3-(1-methyl-1H-indazol-6-yl)-1,4-dihydro-thieno[2′,3′:4,5]cyclopenta [1,2-c]pyrazol-6-yl)pyridin-2-yl)(morpholino) methanone], the pIC50 at FLT3 kinase was more than 9.00; on PDGFRα kinase, 8.00 to 9.00; in test [1], less than 5.00; in test [2] it was less than 5.00.

On to `COc1cc(-c2cc3c(s2)Cc2c(-c4ccc5cnn(C)c5c4)n[nH]c2-3)ccc1CN1CCOCC1` [Compound 24, 4-(2-methoxy-4-(3-(1-methyl-1H-indazol-6-yl)-1,4-dihydrothieno[2′,3′:4,5]cyclopenta[1,2-c]pyrazol-6-yl)benzyl)morpholine], for which the pIC50 at FLT3 kinase is more than 9.00; on PDGFRα kinase, 8.00 to 9.00; in test [1], less than 5.00; in test [2] it was less than 5.00.

Consider `Cn1ncc2ccc(-c3n[nH]c4c3Cc3sc(-c5ccc(CN6CCOCC6)c(F)c5)cc3-4)cc21` [Compound 25, 4-(2-fluoro-4-(3-(1-methyl-1H-indazol-6-yl)-1,4-dihydrothieno[2′,3′:4,5]cyclopenta[1,2-c]pyrazol-6-yl)benzyl)morpholine], for which the pIC50 at FLT3 kinase was 8.00 to 9.00; at PDGFRα kinase it was 8.00 to 9.00; in test [1] it was less than 5.00; in test [2], less than 5.00.

On to `Cc1cc(-c2cc3c(s2)Cc2c(-c4ccc5cnn(C)c5c4)n[nH]c2-3)ccc1CN1CCOCC1` [Compound 26, 4-(2-methyl-4-(3-(1-methyl-1H-indazol-6-yl)-1,4-dihydrothieno[2′,3′:4,5]cyclopenta[1,2-c]pyrazol-6-yl)benzyl)morpholine], for which the pIC50 on FLT3 kinase is 8.00 to 9.00; at PDGFRα kinase it was 7.52 to 8.00; in test [1], less than 5.00; in test [2] it was less than 5.00.

As for `Cn1ncc2ccc(-c3n[nH]c4c3Cc3sc(-c5ccc(CN6CCOCC6)c(C(F)(F)F)c5)cc3-4)cc21` [Compound 27, 4-(4-(3-(1-methyl-1H-indazol-6-yl)-1,4-dihydrothieno[2′,3′:4,5]cyclopenta[1,2-c]pyrazol-6-yl)-2-(trifluoromethyl)benzyl)morpholine], the pIC50 at FLT3 kinase was 8.00 to 9.00; on PDGFRα kinase it was 6.52 to 7.00; in test [1], less than 5.00; in test [2], less than 5.00.

Take `CCC(c1ccc(-c2cc3c(s2)Cc2c(-c4ccc5cnn(C)c5c4)n[nH]c2-3)cc1)N1CCOCC1` (stereo not shown) [Compound 28, 4-(1-(4-(3-(1-methyl-1H-indazol-6-yl)-1,4-dihydro-thieno[2′,3′:4,5]cyclopenta [1,2-c]pyrazol-6-yl)phenyl)propyl)morpholine]: the pIC50 was 8.00 to 9.00 at FLT3 kinase, 7.52 to 8.00 at PDGFRα kinase, less than 5.00 in test [1] and less than 5.00 in test [2].

For the origin of these results see patent US12448394B2, “Heterocyclic pyrazole derivatives as type III receptor tyrosine kinase inhibitors” (DEVELOPMENT CENTER FOR BIOTECHNOLOGY, priority 2019, dated 2025).
